The record followed here is ChEMBL document CHEMBL6134895, “Strategic Design and Optimization of Umifenovir Analogues: Balancing Antiviral Efficacy and hERG Toxicity against SARS-CoV-2” (J Med Chem, 2025).

Active and inactive are the calls of the source. The rule behind the calls is not given here.

Series [1] concerns SARS-CoV-2. The series is described as follows: Antiviral activity against SARS CoV-2 Wuhan infected in African green monkey Vero E6 cells assessed as inhibition of viral replication pretreated for 15 mins followed by compound removal and induction of viral infection for 1 hr and subsequent removal of inoculum and further addition of media containing compound measured after 24 hrs by cell-based ELISA. Format: functional, organism-based. Particulars: for IC50: Severe acute respiratory syndrome coronavirus 2, Wuhan, Vero C1008.

The subject of series [2] is Vero C1008. The series is described as follows: (§1) Cytotoxicity against African green monkey Vero E6 cells assessed as cell viability at 5 uM incubated for 48 hrs by MTT assay. Format: toxicity, cell-based. Particulars: chlorocebus sabaeus, vero c1008, 48 h, 5 µM.
Series [3] has as its target T1, Voltage-gated inwardly rectifying potassium channel KCNH2 (Homo sapiens, UniProt Q12809). The series can be described thus: Inhibition of hERG extracted from membrane (unknown origin) incubated for 4 hrs by fluorescence polarization assay. In kind it is toxicity, cell membranes.
Series [4] can be described thus: Lipophilicity, LogD of compound in sodium phosphate buffer/n-octanol incubated for 3 hrs by LC-UV analysis. In kind it is physicochemical.
The nature of series [5]: Stability in human plasma assessed as half life at 2 uM measured up to 120 mins by LC-MS/MS analysis. Format: ADME, cell-free.
Series [6] can be described thus: Stability in mouse plasma assessed as half life at 2 uM measured up to 120 mins by LC-MS/MS analysis. Format: ADME, cell-free.
The nature of series [7]: Stability in human plasma assessed as compound remaining at 2 uM measured after 60 mins by LC-MS/MS analysis. Particulars: read-out: Stability. Format: ADME, cell-free.
A short description of series [8]: Stability in mouse plasma assessed as compound remaining at 2 uM measured after 60 mins by LC-MS/MS analysis. In kind it is ADME, cell-free. Particulars: read-out: Stability.
Series [9] in a line: Microsomal stability in human liver microsomes assessed as half life at 100 uM preincubated for 15 mins followed by NADPH addition measured up to 60 mins by LC-MS/MS analysis. Format: ADME, Microsome. Particulars: time < 75 min.
Series [10] in a line: Microsomal stability in mouse liver microsomes assessed as half life at 100 uM preincubated for 15 mins followed by NADPH addition measured up to 60 mins by LC-MS/MS analysis. Particulars: time < 75 min. Format: ADME, Microsome.
Series [11] can be described thus: Microsomal stability in human liver microsomes assessed as compound remaining at 100 uM preincubated for 15 mins followed by NADPH addition measured after 60 mins by LC-MS/MS analysis. Particulars: time 75 min, read-out: Stability. Format: ADME, Microsome.
A short description of series [12]: Microsomal stability in mouse liver microsomes assessed as compound remaining at 100 uM preincubated for 15 mins followed by NADPH addition measured after 60 mins by LC-MS/MS analysis. In kind it is ADME, Microsome. Particulars: time 75 min, read-out: Stability.
Series [13] is described as follows: Microsomal stability in human liver microsomes assessed as intrinsic clearance measured per mg protein at 100 uM preincubated for 15 mins followed by NADPH addition measured up to 60 mins by LC-MS/MS analysis. Particulars: time < 75 min, read-out: CLH. In kind it is ADME, Microsome.
Series [14] is described as follows: Microsomal stability in mouse liver microsomes assessed as intrinsic clearance measured per mg protein at 100 uM preincubated for 15 mins followed by NADPH addition measured up to 60 mins by LC-MS/MS analysis. Format: ADME, Microsome. Particulars: time < 75 min, read-out: CLH.
In series [15] the test system is SARS-CoV-2. The series is described as follows: Potency index, ratio of Arbidol IC50 to test compound IC50 for antiviral activity against SARS CoV-2 Wuhan infected in African green monkey Vero E6 cells assessed as inhibition of viral replication pretreated for 15 mins followed by compound removal and induction of viral infection for 1 hr and subsequent removal of inoculum and further addition of media containing compound measured after 24 hrs …. Format: functional, Severe acute respiratory syndrome coronavirus 2. Particulars: time 24.25 hrs.

In series [16] the test system is SARS-CoV-2. The series can be described thus: Antiviral activity against SARS CoV-2 Wuhan infected in African green monkey Vero E6 cells assessed as decrease in spike protein expression at 0.5 uM incubated for 48 hrs by immunofluorescence based analysis. Format: functional, organism-based. Particulars: Severe acute respiratory syndrome coronavirus 2.
Series [17] deals with SARS-CoV-2. The series can be described thus: Antiviral activity against SARS CoV-2 Wuhan infected in African green monkey Vero E6 cells assessed as decrease in viral particles at 0.5 uM incubated for 48 hrs by confocal microscopy. Format: functional, organism-based. Particulars: Severe acute respiratory syndrome coronavirus 2.
Series [18] relates to SARS-CoV-2. The series is described as follows: Antiviral activity against SARS CoV-2 Wuhan infected in African green monkey Vero E6 cells assessed as decrease in green fluorescence at 0.5 uM incubated for 48 hrs by confocal microscopy. In kind it is functional, organism-based. Particulars: Severe acute respiratory syndrome coronavirus 2.
Series [19] can be described thus: Half life in female C57BL/6 mouse at 2 mg/kg, iv. In kind it is ADME, organism-based. Particulars: in vivo.
The nature of series [20]: Clearance in female C57BL/6 mouse at 2 mg/kg, iv. Particulars: in vivo. Format: ADME, organism-based.
Series [21] in a line: Volume of distribution at steady state in female C57BL/6 mouse at 2 mg/kg, iv. In kind it is ADME, organism-based. Particulars: in vivo, read-out: Vdss.
The nature of series [22]: Cmax in female C57BL/6 mouse at 20 mg/kg, po. Particulars: in vivo. In kind it is ADME, organism-based.
Series [23] can be described thus: Tmax in female C57BL/6 mouse at 20 mg/kg, po. Particulars: in vivo. In kind it is ADME, organism-based.
Series [24] in a line: AUC (0 to infinity) in female C57BL/6 mouse at 20 mg/kg, po. Format: ADME, organism-based. Particulars: in vivo.
A short description of series [25]: Oral bioavailability in female C57BL/6 mouse at 20 mg/kg. In kind it is ADME, organism-based. Particulars: in vivo.
Series [26] can be described thus: AUC (0 to infinity) in female C57BL/6 mouse at 2 mg/kg, iv. In kind it is ADME, organism-based. Particulars: in vivo.
For series [27], the target named is T1, Voltage-gated inwardly rectifying potassium channel KCNH2. The series is described as follows: Inhibition of hERG. In kind it is toxicity.
The test system of series [28] is SARS-CoV-2. The series is described as follows: Antiviral activity against SARS CoV-2 Wuhan infected in African green monkey Vero E6 cells assessed as virus inactivation at 5 uM pretreated for 15 mins followed by compound removal and induction of viral infection for 1 hr and subsequent removal of inoculum and further addition of media containing compound measured after 48 hrs by RT-qPCR analysis relative to control. Format: functional, Severe acute respiratory syndrome coronavirus 2. Particulars: time 48.25 hrs.

The test system of series [29] is SARS-CoV-2. The series can be described thus: Antiviral activity against SARS CoV-2 Wuhan infected in African green monkey Vero E6 cells assessed as decrease in spike protein expression at 0.7 uM incubated for 48 hrs by immunofluorescence based analysis. Format: functional, organism-based. Particulars: Severe acute respiratory syndrome coronavirus 2.
Series [30] deals with SARS-CoV-2. The series can be described thus: Antiviral activity against SARS CoV-2 Wuhan infected in African green monkey Vero E6 cells assessed as decrease in viral particles at 0.7 uM incubated for 48 hrs by confocal microscopy. In kind it is functional, organism-based. Particulars: Severe acute respiratory syndrome coronavirus 2.
Series [31] deals with SARS-CoV-2. The series is described as follows: Antiviral activity against SARS CoV-2 Wuhan infected in African green monkey Vero E6 cells assessed as decrease in green fluorescence at 0.7 uM incubated for 48 hrs by confocal microscopy. In kind it is functional, organism-based. Particulars: Severe acute respiratory syndrome coronavirus 2.
Series [32] in a line: as §1. In kind it is toxicity, cell-based, Vero C1008. Particulars: chlorocebus sabaeus, Vero E6 cells, read-out: Activity.
Series [33] concerns Vero C1008. The series is described as follows: Cytotoxicity against African green monkey Vero E6 cells assessed as cell viability at 1 uM incubated for 48 hrs by MTT assay. Format: toxicity, cell-based. Particulars: chlorocebus sabaeus, vero c1008, 48 h.
Series [34] concerns SARS-CoV-2. The series can be described thus: Antiviral activity against SARS CoV-2 Wuhan infected in African green monkey Vero E6 cells assessed as virus inactivation at 1 uM pretreated for 15 mins followed by compound removal and induction of viral infection for 1 hr and subsequent removal of inoculum and further addition of media containing compound measured after 48 hrs by RT-qPCR analysis relative to control. Particulars: time 48.25 hrs. Format: functional, Severe acute respiratory syndrome coronavirus 2.

Series [35] deals with SARS-CoV-2. The series is described as follows: Antiviral activity against SARS CoV-2 Wuhan infected in African green monkey Vero E6 cells assessed as virus inactivation at 10 uM pretreated for 15 mins followed by compound removal and induction of viral infection for 1 hr and subsequent removal of inoculum and further addition of media containing compound measured after 48 hrs by RT-qPCR analysis relative to control. Particulars: time 48.25 hrs. Format: functional, Severe acute respiratory syndrome coronavirus 2.

T1 sequence (Q12809 whole entry): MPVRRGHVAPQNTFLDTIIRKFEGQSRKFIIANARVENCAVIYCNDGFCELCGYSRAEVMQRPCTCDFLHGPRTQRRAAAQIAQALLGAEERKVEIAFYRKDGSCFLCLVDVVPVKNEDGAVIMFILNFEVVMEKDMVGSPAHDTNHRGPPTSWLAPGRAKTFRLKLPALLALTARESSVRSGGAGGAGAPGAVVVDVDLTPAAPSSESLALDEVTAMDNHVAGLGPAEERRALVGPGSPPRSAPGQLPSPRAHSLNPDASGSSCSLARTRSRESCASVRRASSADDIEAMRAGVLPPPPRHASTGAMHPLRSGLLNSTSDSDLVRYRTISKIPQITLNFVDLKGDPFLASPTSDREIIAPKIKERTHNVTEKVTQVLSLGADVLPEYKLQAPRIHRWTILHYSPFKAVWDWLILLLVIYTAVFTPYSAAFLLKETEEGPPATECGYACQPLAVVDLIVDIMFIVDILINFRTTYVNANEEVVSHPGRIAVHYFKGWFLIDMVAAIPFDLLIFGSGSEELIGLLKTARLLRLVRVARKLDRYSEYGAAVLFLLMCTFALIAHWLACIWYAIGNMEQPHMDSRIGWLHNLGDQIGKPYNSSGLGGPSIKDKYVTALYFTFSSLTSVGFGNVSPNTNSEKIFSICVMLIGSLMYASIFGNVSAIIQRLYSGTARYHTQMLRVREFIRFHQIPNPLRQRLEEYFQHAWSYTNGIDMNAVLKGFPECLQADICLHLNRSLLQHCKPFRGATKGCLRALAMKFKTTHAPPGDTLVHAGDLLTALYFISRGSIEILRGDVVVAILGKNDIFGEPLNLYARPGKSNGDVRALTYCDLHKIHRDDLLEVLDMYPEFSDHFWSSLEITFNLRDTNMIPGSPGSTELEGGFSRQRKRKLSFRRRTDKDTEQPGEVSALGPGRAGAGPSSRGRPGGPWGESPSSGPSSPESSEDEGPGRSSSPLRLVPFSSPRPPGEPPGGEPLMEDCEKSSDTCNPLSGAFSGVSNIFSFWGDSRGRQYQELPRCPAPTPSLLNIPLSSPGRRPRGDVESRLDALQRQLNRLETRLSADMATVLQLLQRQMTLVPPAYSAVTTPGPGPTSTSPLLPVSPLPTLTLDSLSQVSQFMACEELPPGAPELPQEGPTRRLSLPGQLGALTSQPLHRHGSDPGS

As to `Cc1ccc(Cn2c(CSc3c(C)cc(C)cc3C)c(C(=O)N3CCC(N4CCOCC4)CC3)c3cc(O)c(Br)cc32)cc1`, the IC50 in the series on SARS-CoV-2 [1] came to 0.67 µM; in series [3], 15.9 µM. Besides, the Activity entry is “Non-toxic” in the series with Vero C1008 [2] and “Active; Activity Was Comparable To Remdesivir” in the series with SARS-CoV-2 [17]. This compound returned a logD at 3 h in series [4] of 2.45. For the same compound, the half-life at 2 µM in [5] is 41.1 min; in series [6], 53.5 min. In addition, the remaining at 1 h, 2 µM was found to be 27.1% in [7] and 44% in series [8]. Further, the half-life at 100 µM in series [9] turned out to be 19.8 min; in series [10], 26.9 min. In addition, the remaining at 1 h, 100 µM came to 11.4% in [11] and 14.7% in series [12]. For the same compound, the microsomal CLint at 100 µM in series [13] was found to be 35 µL/min/mg; in series [14], 31.3 µL/min/mg. In addition, the “Ratio IC50” value with SARS-CoV-2 [15] is reported as ~13. In addition, the result with SARS-CoV-2 [16] and in the series with SARS-CoV-2 [18] was Active. Besides, the half-life in series [19] is 86.4 min. The clearance in [20] turned out to be 92.4 mL/min/kg. In addition, in series [21], the Vd stood at 13.4 L/kg. In series [22], this compound gave a Cmax of 148 ng/mL. In series [23], the Tmax was 120 min. The AUC(0-inf) in series [24] turned out to be 1190 ng·h/mL; in series [26], 352 ng·h/mL. The compound further came in with a bioavailability in [25] of 33.9%.

In the case of `CCOC(=O)c1c(CSc2ccccc2)n(C)c2cc(Br)c(O)c(CN(C)C)c12` [UMIFENOVIR], the IC50 in series [27] was 0.54 µM; in the series on SARS-CoV-2 [1] it was 9 µM; in series [3], 0.54 µM. Moreover, the Activity result is reported as “Non-toxic” in the series with Vero C1008 [2] and <90% with SARS-CoV-2 [28].

As to `Cc1ccc(Cn2c(CSc3c(C)cc(C)cc3C)c(C(=O)Nc3cnn(C)c3)c3cc(O)c(Br)cc32)cc1`, the IC50 in the series on SARS-CoV-2 [1] was 0.7 µM; in [3], > 30 µM. Besides, the figures for the Activity entry in the series on Vero C1008 [2] and in the series on SARS-CoV-2 [30] were “Non-toxic” and “Active; Activity Was Comparable To Remdesivir”, respectively. The compound also registered a logD at 3 h in series [4] of 1.93. For the same compound, the half-life at 2 µM in series [5] stood at 42 min; in series [6], 52.2 min. For the same compound, the remaining at 1 h, 2 µM in series [7] amounted to 28.6%; in [8] it was 42.5%. The half-life at 100 µM is 24.5 min in series [9] and 22.1 min in series [10]. In addition, the remaining at 1 h, 100 µM in series [11] was determined as 16.5%; in [12], 18%. The microsomal CLint at 100 µM is 28.3 µL/min/mg in [13] and 25.8 µL/min/mg in [14]. For the same compound, the “Ratio IC50” value in the series on SARS-CoV-2 [15] is reported as ~13. The outcome in the series with SARS-CoV-2 [29] and with SARS-CoV-2 [31] was Active.

Regarding `CCOC(=O)c1c(CSc2ccc(C)cc2C)n(C)c2cc(Br)c(O)cc12`, in the series on SARS-CoV-2 [1] (Severe acute respiratory syndrome coronavirus 2, time 24.25 hrs), the inhibition result was “inactive”. In addition, the viability at 48 h, 5 µM in [32] is 85%. For the same compound, the results for the Activity result in the series with Vero C1008 [33], in the series with SARS-CoV-2 [34] and in the series on SARS-CoV-2 [35] were “Non-toxic”, >95% and >99.9%, respectively.
